Experimental data: patent US12478605B2, “Biochanin a derivatives for treatment of BEST1-related retinopathies” (Universität Regensburg, priority 2020, dated 2025)
Structures can show the parent of a compound that is named as a salt.

Each compound was assayed against T1, mutant BEST1 R218C (Homo sapiens, UniProt O76090, R218C) (assay: YFP-based I- efflux assay in MDCKII cells co-expressing YFP and mutant BEST1 R218C). Details: 5 μM, compound addition for 24 h, FIGS. 6-8.
T1 construct: expressed in transfected cells
T1 sequence (O76090 1-585 R218C): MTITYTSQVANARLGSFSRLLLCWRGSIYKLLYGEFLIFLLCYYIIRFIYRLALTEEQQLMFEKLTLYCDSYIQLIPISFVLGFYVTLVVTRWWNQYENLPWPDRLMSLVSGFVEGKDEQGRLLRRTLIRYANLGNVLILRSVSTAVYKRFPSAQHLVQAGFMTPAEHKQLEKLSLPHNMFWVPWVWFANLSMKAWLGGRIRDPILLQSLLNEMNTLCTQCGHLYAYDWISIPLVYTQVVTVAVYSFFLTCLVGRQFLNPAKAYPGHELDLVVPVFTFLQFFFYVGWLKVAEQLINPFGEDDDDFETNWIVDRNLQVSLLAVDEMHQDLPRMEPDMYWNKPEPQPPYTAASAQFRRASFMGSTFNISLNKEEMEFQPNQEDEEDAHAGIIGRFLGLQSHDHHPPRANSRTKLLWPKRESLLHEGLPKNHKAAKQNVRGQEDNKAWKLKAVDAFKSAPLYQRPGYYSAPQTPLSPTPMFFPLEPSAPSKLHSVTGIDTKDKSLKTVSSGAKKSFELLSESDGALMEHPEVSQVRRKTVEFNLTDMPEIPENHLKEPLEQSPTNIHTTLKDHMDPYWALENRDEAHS
Format: cell-based
Description: MDCKII cells co-expressing yellow fluorescence protein (YFP) and mutant BEST1 R218C were seeded on black 96-well plates and cultivated for 6 days to achieve polarity, a crucial requirement for correct basolateral localization of BEST1 in epithelial cells. Compounds were tested at 5 μM concentration in a 96-well format. After compound addition for 24 h, cells were subjected to an outwardly directed iodid (I^−)-gradient to drive BEST1-mediated I^− efflux and produce increasing fluorescence signals. Each assay consisted of recording of YFP quenching after I^− pre-incubation for 6 min (=100% value), followed by 7 min of recording of increasing fluorescence after addition of the chloride (Cr) containing solution. Changes of fluorescence intensities were monitored on a plate reader. The effect on the kinetics of I— efflux was tested for Biochanin A (FIG. 6A), Trimethoxyisoflavone (FIG. 6B), 5,4-dimethoxy hydroxyisoflavone (FIG. 6C), Biochanin A-7-methyl ether (FIG. 6D), Biochanin A-7-acetate (FIG. 6E), Biochanin A diacetate (FIG. 6F), Biochanin A-7-pentanoate (FIG. 6G), Biochanin A dipentanoate (FIG. 6H), Biochanin A-7-pivalate (FIG. 7A), Biochanin A-dipavalate (FIG. 7B), Biochanin A-7-acrylate (FIG. 7C), Biochanin A diacrylate (FIG. 7D), Biochanin A-7-methyl fumarate (FIG. 7E), Biochanin A-di(methyl fumarate) (FIG. 7F), Biochanin A-7-butylcarbamate (FIG. 7G), Biochanin A di(butylcarbamate) (FIG. 7H), Biochanin A-7-phosphate disodium salt (FIG. 8A), Biochanin A-7-isopropylate (FIG. 8B), 7-pivaloxymethyl-Biochanin A (FIG. 8C), Biochanin A diisopropylate (FIG. 8D), Biochanin A-7-isopropyl carbonate (FIG. 8E), Biochanin A diisopropyl carbonate (FIG. 8F), Isopropyloxycarbonylmethoxy-Biochanin A (FIG. 8G).
For COc1ccc(-c2coc3cc(OCOC(=O)OC(C)C)cc(O)c3c2=O)cc1, the “anion transport activity (kinetics of I- efflux) in comparison to untreated cells” value (shortened to “anion transport activity”) was “noticeable increased”.
In the case of COc1ccc(-c2coc3cc(O)cc(OC)c3c2=O)cc1 [5,4-dimethoxy-7-hydroxyisoflavone], the “anion transport activity” value is reported as “no or only minimal effect”.
For COc1ccc(-c2coc3cc(OCOC(=O)C(C)(C)C)cc(O)c3c2=O)cc1 [7-pivaloxymethyl-Biochanin A, 7-Pivaloxymethyl-Biochanin A], the “anion transport activity” value was “noticeable increased”.
For CCCCNC(=O)Oc1cc(OC(=O)NCCCC)c2c(=O)c(-c3ccc(OC)cc3)coc2c1 [Biochanin A di(butylcarbamate)], the “anion transport activity” value was “strongly increased”.
With C=CC(=O)Oc1cc(OC(=O)C=C)c2c(=O)c(-c3ccc(OC)cc3)coc2c1 [Biochanin A diacrylate] the “anion transport activity” value was “strongly increased”.
With COc1ccc(-c2coc3cc(OC(=O)OC(C)C)cc(OC(=O)OC(C)C)c3c2=O)cc1 [Biochanin A diisopropyl carbonate] the “anion transport activity” value was “strongly increased”.
COc1ccc(-c2coc3cc(OC(=O)C(C)C)cc(OC(=O)C(C)C)c3c2=O)cc1 [Biochanin A diisopropylate] was tested, and the “anion transport activity” value was “strongly increased”.
In the case of CCCCC(=O)Oc1cc(OC(=O)CCCC)c2c(=O)c(-c3ccc(OC)cc3)coc2c1 [Biochanin A dipentanoate], the “anion transport activity” value is reported as “strongly increased”.
In the case of COc1ccc(-c2coc3cc(OC(C)=O)cc(O)c3c2=O)cc1 [Biochanin A-7-acetate], the “anion transport activity” value is reported as “no or only minimal effect”.
With C=CC(=O)Oc1cc(O)c2c(=O)c(-c3ccc(OC)cc3)coc2c1 [Biochanin A-7-acrylate] the “anion transport activity” value was “noticeable increased”.
CCCCNC(=O)Oc1cc(O)c2c(=O)c(-c3ccc(OC)cc3)coc2c1 [Biochanin A-7-butylcarbamate] was tested, and the “anion transport activity” value was “no or only minimal effect”.
With COc1ccc(-c2coc3cc(OC(=O)OC(C)C)cc(O)c3c2=O)cc1 [Biochanin A-7-isopropyl carbonate] the “anion transport activity” value was “strongly increased”.
COc1ccc(-c2coc3cc(OC(=O)C(C)C)cc(O)c3c2=O)cc1 [Biochanin A-7-isopropylate] was tested, and the “anion transport activity” value was “no or only minimal effect”.
In the case of COc1ccc(-c2coc3cc(OC)cc(O)c3c2=O)cc1 [Biochanin A-7-methyl ether], the “anion transport activity” value is reported as “no or only minimal effect”.
COC(=O)/C=C/C(=O)Oc1cc(O)c2c(=O)c(-c3ccc(OC)cc3)coc2c1 [Biochanin A-7-methyl fumarate] was tested, and the “anion transport activity” value was “no or only minimal effect”.
With CCCCC(=O)Oc1cc(O)c2c(=O)c(-c3ccc(OC)cc3)coc2c1 [Biochanin A-7-pentanoate] the “anion transport activity” value was “no or only minimal effect”.
With COc1ccc(-c2coc3cc(OP(=O)([O-])[O-])cc(O)c3c2=O)cc1.[Na+].[Na+] [Biochanin A-7-phosphate disodium salt] the “anion transport activity” value was “noticeable increased”.
COc1ccc(-c2coc3cc(OC(=O)C(C)(C)C)cc(O)c3c2=O)cc1 [Biochanin A-7-pivalate] was tested, and the “anion transport activity” value was “no or only minimal effect”.
For COC(=O)/C=C/C(=O)Oc1cc(OC(=O)/C=C/C(=O)OC)c2c(=O)c(-c3ccc(OC)cc3)coc2c1 [Biochanin A-di(methyl fumarate), Biochanin A di(methyl fumarate)], the “anion transport activity” value was “strongly increased”.
In the case of COc1ccc(-c2coc3cc(OC(=O)C(C)(C)C)cc(OC(=O)C(C)(C)C)c3c2=O)cc1 [Biochanin A-dipavalate, Biochanin A dipivalate], the “anion transport activity” value is reported as “noticeable increased”.
With COc1ccc(-c2coc3cc(O)cc(O)c3c2=O)cc1 [Biochanin A] the “anion transport activity” value was “no or only minimal effect”.

What follows are compounds tested against T1, mutant BEST1 R218C (assay: YFP-halide transport assay (I- influx), MDCKII cells expressing mutant BEST1-R218C). Details: MDCKII cells; cell line not stated; FIG. 4D.
Format: cell-based
Description: Human hiPSC-RPE or MDCKII cells were transduced via lentivirus particles which were produced by co-transfecting HEK293T cells with the yellow fluorescence protein (YFPH148Q/I152L)-pLJM1 and helper plasmids pMD2.G and psPAX2 using the Ca^2+ phospate transfection method. After six weeks of cultivation in 96-well black microtiter plates, cells were incubated with 100 mM Cl^− containing solution and basal YFP fluorescence was measured in a Tecan microplate reader. Subsequently Cl^− was replaced with equimolar I^− and decrease of YFP fluorescence intensity was monitored for another 2 min in 10 sec intervals.
To analyze BEST1-mediated anion transport in the cell lines generated in the previous examples, a well-established halide transport assay (Galietta et al., 2001) was adapted. […] Addition of I— leads to specific YFP quenching over time and changes of fluorescence intensities can be monitored on a plate reader. MDCKII cells were incubated with 100 mM Cl— containing solution and steady state YFP fluorescence signal intensities were measured after 6 minutes. Subsequently, Cl— was replaced by equimolar I— and anion permeability was monitored by decreasing YFP intensities as a result of BEST1-mediated I— influx in a time course up to 2 minutes (FIG. 2B). For several independent BEST1 wildtype cell lines a fast kinetic of decreasing fluorescence intensities to ˜30 to 40% was observed while the untransfected control cell lines remained flat (FIGS. 2C and D).
Example 8—Evaluation of BioA(C2H3O2)2 activity in MDCKII cells MDCKII cells co-expressing YFP and BEST1 wildtype or mutant p.(R218C) were seeded on black 96-well plates and cultivated for 6 days to achieve polarity, a requirement for correct basolateral localization of BEST1 in epithelial cells. Compounds were tested separately at 10 μM concentration in a 96-well format. After compound addition for 24 h, cells were subjected to an inwardly directed I— gradient to drive I— influx and produce decreasing (quenched) fluorescence signals. […]
For COc1ccc(-c2coc3cc(O)cc(O)c3c2=O)cc1 [Biochanin A], the “effect on BEST1-mediated I- influx” value was “no effect”.
